According to ChEMBL document CHEMBL5532637, “Antimicrobial activity of natural and semi-synthetic carbazole alkaloids” (Eur J Med Chem, 2023):
≈ marks a conversion by molar mass, not a printed value.

Tests used:
Staphylococcus aureus [1] = test: Antibacterial activity against Staphylococcus aureus ATCC 25923 assessed as inhibition of bacterial growth incubated for 24 hrs by broth dilution assay; type: functional
Staphylococcus aureus [2] = test: Antibacterial activity against methicillin-resistant Staphylococcus aureus clinical isolate assessed as inhibition of bacterial growth incubated for 24 hrs by broth dilution assay; type: functional
Klebsiella pneumoniae = test: Antibacterial activity against colistin resistant Klebsiella pneumoniae assessed as inhibition of bacterial growth incubated for 24 hrs; type: functional
Pichia kudriavzevii = test: Antifungal activity against Candida krusei DSM 6128 assessed as inhibition of fungal growth incubated for 24 hrs by broth dilution method; type: functional
Candida albicans [3] = test: Antifungal activity against Candida albicans ATCC 10231 assessed as inhibition of fungal growth incubated for 24 hrs by broth dilution method; type: functional
Nakaseomyces glabratus = test: Antifungal activity against Candida glabrata DSM 11226 assessed as inhibition of fungal growth incubated for 24 hrs by broth dilution method; type: functional
Escherichia coli [4] = test: Antibacterial activity against Escherichia coli assessed as inhibition of bacterial growth incubated for 18 to 24 hrs by broth macrodilution assay; type: functional; conditions: time 18-24 hrs
Pseudomonas aeruginosa [5] = test: Antibacterial activity against Pseudomonas aeruginosa assessed as inhibition of bacterial growth incubated for 18 to 24 hrs by broth macrodilution assay; type: functional; conditions: time 18-24 hrs
Salmonella typhi = test: Antibacterial activity against Salmonella typhi assessed as inhibition of bacterial growth incubated for 18 to 24 hrs by broth macrodilution assay; type: functional, Salmonella enterica subsp. enterica serovar Typhi; conditions: Salmonella enterica; time 18-24 hrs
Pseudomonas aeruginosa [6] = test: Antibacterial activity against Pseudomonas aeruginosa MTCC 1688 assessed as inhibition of bacterial growth incubated for 24 hrs by two-fold serial dilution method; type: functional
Escherichia coli [7] = test: Antibacterial activity against Escherichia coli MTCC 1687 assessed as inhibition of bacterial growth incubated for 24 hrs by two-fold serial dilution method; type: functional
Bacillus subtilis [8] = test: Antibacterial activity against Bacillus subtilis MTCC441 assessed as inhibition of bacterial growth incubated for 24 hrs by two-fold serial dilution method; type: functional
Staphylococcus aureus [9] = test: Antibacterial activity against Staphylococcus aureus MTCC 96 assessed as inhibition of bacterial growth incubated for 24 hrs by two-fold serial dilution method; type: functional
Staphylococcus aureus [10] = test: Antibacterial activity against Staphylococcus aureus ATCC 6538 assessed as inhibition of bacterial growth incubated for 24 hrs by alamar blue assay; type: functional
[11] = system: Staphylococcus epidermidis; test: Antibacterial activity against Staphylococcus epidermidis ATCC 12228 assessed as inhibition of bacterial growth incubated for 24 hrs by alamar blue assay; type: functional
Staphylococcus aureus [12] = test: Antibacterial activity against Staphylococcus aureus assessed as inhibition of bacterial growth by two-fold serial dilution assay; type: functional
Staphylococcus aureus [13] = test: Antibacterial activity against Staphylococcus aureus ATCC 29213 assessed as inhibition of bacterial growth by two-fold serial dilution assay; type: functional
Staphylococcus aureus [14] = test: Antibacterial activity against methicillin-resistant Staphylococcus aureus assessed as inhibition of bacterial growth by two-fold serial dilution assay; type: functional
Staphylococcus aureus [15] = test: Antibacterial activity against Staphylococcus aureus ATCC 25923 assessed as inhibition of bacterial growth by two-fold serial dilution assay; type: functional
Macrophomina phaseolina = test: Antifungal activity against Macrophomina phaseolina assessed as zone of inhibition at 400 ug/ml by disc-diffusion method; type: functional; conditions: read-out: IZ
Bacillus subtilis [16] = test: Antibacterial activity against Bacillus subtilis assessed as zone of inhibition at 400 ug/ml by disc-diffusion method; type: functional; conditions: read-out: IZ
Pseudomonas aeruginosa [17] = test: Antibacterial activity against Pseudomonas aeruginosa assessed as zone of inhibition at 400 ug/ml by disc-diffusion method; type: functional; conditions: read-out: IZ
Aspergillus flavus = test: Antifungal activity against Aspergillus flavus assessed as zone of inhibition at 400 ug/ml by disc-diffusion method; type: functional; conditions: read-out: IZ
Escherichia coli [18] = test: Antibacterial activity against Escherichia coli assessed as zone of inhibition at 400 ug/ml by disc-diffusion method; type: functional; conditions: read-out: IZ
Fusarium oxysporum = test: Antifungal activity against Fusarium oxysporum assessed as zone of inhibition at 400 ug/ml by disc-diffusion method; type: functional; conditions: read-out: IZ
Candida albicans [19] = test: Antifungal activity against Candida albicans assessed as inhibition of fungal growth incubated for 1 hr by serial plate dilution method; type: functional
Micrococcus luteus = test: Antibacterial activity against Micrococcus luteus ATCC 21881 assessed as inhibition of bacterial growth incubated for 24 hrs by disk diffusion method; type: functional
Staphylococcus aureus [20] = test: Antibacterial activity against Staphylococcus aureus ATCC 6538 assessed as inhibition of bacterial growth incubated for 24 hrs by disk diffusion method; type: functional
Bacillus subtilis [21] = test: Antibacterial activity against Bacillus subtilis NRRL B-14819 assessed as inhibition of bacterial growth incubated for 24 hrs by disk diffusion method; type: functional
Escherichia coli [22] = test: Antibacterial activity against Escherichia coli ATCC 25922 assessed as inhibition of bacterial growth incubated for 24 hrs by disk diffusion method; type: functional
Pseudomonas aeruginosa [23] = test: Antibacterial activity against Pseudomonas aeruginosa assessed as inhibition of bacterial growth incubated for 24 hrs by macrodilution broth method; type: functional
Bacillus subtilis [24] = test: Antibacterial activity against Bacillus subtilis assessed as inhibition of bacterial growth incubated for 24 hrs by macrodilution broth method; type: functional
Staphylococcus aureus [25] = test: Antibacterial activity against Staphylococcus aureus assessed as inhibition of bacterial growth incubated for 24 hrs by macrodilution broth method; type: functional
Escherichia coli [26] = test: Antibacterial activity against Escherichia coli assessed as inhibition of bacterial growth incubated for 24 hrs by macrodilution broth method; type: functional
Escherichia coli [27] = test: Antibacterial activity against Escherichia coli assessed as inhibition of bacterial growth by broth dilution method; type: functional
Salmonella typhimurium = test: Antibacterial activity against Salmonella typhimurium assessed as inhibition of bacterial growth by broth dilution method; type: functional, Salmonella enterica subsp. enterica serovar Typhimurium; conditions: Salmonella enterica
Staphylococcus aureus [28] = test: Antibacterial activity against Staphylococcus aureus assessed as inhibition of bacterial growth by broth microdilution method; type: functional
Streptococcus pyogenes = test: Antibacterial activity against Streptococcus pyogenes assessed as inhibition of bacterial growth by broth dilution method; type: functional

Structure (SMILES): CCn1c2ccccc2c2c(Cl)c(N/N=C(/C(C)=O)N3CCN(CCO)CC3)ccc21
- MIC (Staphylococcus aureus [1]): 3.12 µg/mL (≈ 7.07 µM)
- MIC (Staphylococcus aureus [2]): 1.56 µg/mL (≈ 3.53 µM)

Structure (SMILES): CCn1c2ccccc2c2c3[nH]c(C(=O)NNC(=O)c4ccc([N+](=O)[O-])cc4)cc3ccc21
- MIC (Klebsiella pneumoniae): 64 µg/mL (≈ 145 µM)

Structure (SMILES): CNc1nc(Nc2ccc3[nH]c4ccc(Nc5cnc(N)c(NC)n5)cc4c3c2)cnc1N
- MIC (Pichia kudriavzevii): 31.2 µg/mL (≈ 70.8 µM)
- MIC (Candida albicans [3]): 250 µg/mL (≈ 566 µM)
- MIC (Nakaseomyces glabratus): 62.5 µg/mL (≈ 142 µM)

Structure (SMILES): CCOC(=O)C1=C(C)NC2=C(C(=O)CC(C)(C)C2)C1c1ccc2c(c1)c1ccccc1n2CC (stereo not drawn)
- MIC (Escherichia coli [4]): 16 µg/mL (≈ 35 µM)
- MIC (Pseudomonas aeruginosa [5]): 16 µg/mL (≈ 35 µM)
- MIC (Salmonella typhi): 16 µg/mL (≈ 35 µM)

Structure (SMILES): CCOC(=O)C1COC2=C(C(=O)N3c4ccccc4C4C=CC=C2C43)C1c1ccc(OC)cc1 (stereo not drawn)
- MIC (Pseudomonas aeruginosa [6]): 12.5 µg/mL (≈ 27.4 µM)
- MIC (Escherichia coli [7]): 6.25 µg/mL (≈ 13.7 µM)
- MIC (Bacillus subtilis [8]): 12.5 µg/mL (≈ 27.4 µM)
- MIC (Staphylococcus aureus [9]): 12.5 µg/mL (≈ 27.4 µM)

Structure (SMILES): COc1ccccc1OCCNCC(O)COc1cccc2[nH]c3ccccc3c12 (stereo not drawn) [CARVEDILOL]
- MIC (Staphylococcus aureus [10]): 40 µg/mL (≈ 98.4 µM)
- MIC [11]: 40 µg/mL (≈ 98.4 µM)

Structure (SMILES): Sc1nnc(Cn2c3ccc(Br)cc3c3cc(Br)ccc32)o1
- MIC (Staphylococcus aureus [12]): 0.6 µM (≈ 0.263 µg/mL)
- MIC (Staphylococcus aureus [13]): 0.6 µM (≈ 0.263 µg/mL)
- MIC (Staphylococcus aureus [14]): 0.6 µM (≈ 0.263 µg/mL)
- MIC (Staphylococcus aureus [15]): 0.6 µM (≈ 0.263 µg/mL)

Structure (SMILES): CCn1c2ccccc2c2cc3c(cc21)C(=O)CCC(=O)N3
- zone of inhibition at 400 µg/mL (Macrophomina phaseolina): 19 mm
- zone of inhibition at 400 µg/mL (Bacillus subtilis [16]): 27 mm
- zone of inhibition at 400 µg/mL (Pseudomonas aeruginosa [17]): 16 mm
- zone of inhibition at 400 µg/mL (Aspergillus flavus): 19 mm
- zone of inhibition at 400 µg/mL (Escherichia coli [18]): 20 mm
- zone of inhibition at 400 µg/mL (Fusarium oxysporum): 18 mm

Structure (SMILES): CC1=NN(c2ccccc2)C(=O)/C1=N\NNC(=O)Cn1c2ccccc2c2ccccc21
- MIC (Candida albicans [19]): 9.6 µg/mL (≈ 22.6 µM)
- MIC (Micrococcus luteus): 3.1 µg/mL (≈ 7.3 µM)
- MIC (Staphylococcus aureus [20]): 1.1 µg/mL (≈ 2.59 µM)
- MIC (Bacillus subtilis [21]): 1.2 µg/mL (≈ 2.83 µM)
- MIC (Escherichia coli [22]): 6.4 µg/mL (≈ 15.1 µM)

Structure (SMILES): COC(=O)C(C)c1ccc2c3cc(Cl)ccc3n(CC(=O)Nc3c(C)cccc3C)c2c1 (stereo not drawn)
- MIC (Pseudomonas aeruginosa [23]): 0.25 µg/mL (≈ 0.557 µM)
- MIC (Bacillus subtilis [24]): 0.25 µg/mL (≈ 0.557 µM)
- MIC (Staphylococcus aureus [25]): 0.25 µg/mL (≈ 0.557 µM)
- MIC (Escherichia coli [26]): 0.25 µg/mL (≈ 0.557 µM)

Structure (SMILES): CCOC(=O)C1=C(C)NC2=C(C(=O)c3ccccc32)C1c1ccc2c(c1)c1ccccc1n2CC (stereo not drawn)
- MIC (Escherichia coli [27]): 32 µg/mL (≈ 69.2 µM)
- MIC (Salmonella typhimurium): 32 µg/mL (≈ 69.2 µM)
- MIC (Staphylococcus aureus [28]): 32 µg/mL (≈ 69.2 µM)
- MIC (Streptococcus pyogenes): 64 µg/mL (≈ 138 µM)
